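48-hour exposure; five concentrations; linearly interpolated endpoints. Here, GI50 denotes the concentration required for 50% inhibition of growth. TGI: concentration producing complete growth inhibition.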
Key:
Assay in all cases: DTP human tumour cell line panel, 48 h
MDA-MB-231 breast = test system: MDA-MB-231 breast
MOLT-4 leukemia = test system: MOLT-4 leukemia
HCC-2998 colon = test system: HCC-2998 colon
SNB-19 CNS = test system: SNB-19 CNS
HS 578T breast = test system: HS 578T breast
NCI-H460 lung = test system: NCI-H460 lung
HT29 colon = test system: HT29 colon
HOP-92 NSCLC = test system: HOP-92 NSCLC
DU-145 prostate = test system: DU-145 prostate
NCI-H23 lung = test system: NCI-H23 lung
CAKI-1 renal = test system: CAKI-1 renal
SF-539 CNS = test system: SF-539 CNS
UACC-257 melanoma = test system: UACC-257 melanoma
MCF7 breast = test system: MCF7 breast
U251 CNS = test system: U251 CNS
SW-620 colon = test system: SW-620 colon
UO-31 renal = test system: UO-31 renal
OVCAR-8 ovarian = test system: OVCAR-8 ovarian
SN12C renal = test system: SN12C renal
HCT-15 colon = test system: HCT-15 colon
SNB-75 CNS = test system: SNB-75 CNS
A498 renal = test system: A498 renal
COLO 205 colon = test system: COLO 205 colon
HOP-62 NSCLC = test system: HOP-62 NSCLC
IGROV1 ovarian = test system: IGROV1 ovarian
OVCAR-4 ovarian = test system: OVCAR-4 ovarian
RPMI-8226 leukemia = test system: RPMI-8226 leukemia
RXF 393 renal = test system: RXF 393 renal
UACC-62 melanoma = test system: UACC-62 melanoma
SK-MEL-2 melanoma = test system: SK-MEL-2 melanoma
A549 NSCLC = test system: A549 NSCLC
PC-3 prostate = test system: PC-3 prostate
NCI/ADR-RES ovarian = test system: NCI/ADR-RES ovarian
SK-MEL-5 melanoma = test system: SK-MEL-5 melanoma
BT-549 breast = test system: BT-549 breast
K-562 leukemia = test system: K-562 leukemia
LOX IMVI melanoma = test system: LOX IMVI melanoma
SF-295 CNS = test system: SF-295 CNS
M14 melanoma = test system: M14 melanoma
TK-10 renal = test system: TK-10 renal
SF-268 CNS = test system: SF-268 CNS
OVCAR-3 ovarian = test system: OVCAR-3 ovarian
SK-MEL-28 melanoma = test system: SK-MEL-28 melanoma
HCT-116 colon = test system: HCT-116 colon
NCI-H522 lung = test system: NCI-H522 lung
SK-OV-3 ovarian = test system: SK-OV-3 ovarian
NCI-H226 lung = test system: NCI-H226 lung
786-0 renal = test system: 786-0 renal
OVCAR-5 ovarian = test system: OVCAR-5 ovarian
EKVX NSCLC = test system: EKVX NSCLC
KM12 colon = test system: KM12 colon
MDA-MB-435 = test system: MDA-MB-435
CCRF-CEM leukemia = test system: CCRF-CEM leukemia
ACHN renal = test system: ACHN renal
HL-60(TB) leukemia = test system: HL-60(TB) leukemia

`ClCc1ccccc1Cn1cnc2ncnc(Cl)c21` gave a GI50 (MDA-MB-231 breast) of 2.78 µM, a TGI (MDA-MB-231 breast) of 6.97 µM and a GI50 (MOLT-4 leukemia) of 1.65 µM. It also gave a TGI (MOLT-4 leukemia) of 4.24 µM, a GI50 (HCC-2998 colon) of 2.26 µM and a TGI (HCC-2998 colon) of 4.22 µM. It also gave a GI50 (SNB-19 CNS) of 7.3 µM, a TGI (SNB-19 CNS) of over 100 µM and a GI50 (HS 578T breast) of 2.29 µM. The TGI (HS 578T breast) was 5.96 µM, the GI50 (NCI-H460 lung) was 13.5 µM and the TGI (NCI-H460 lung) was 60.9 µM. It also gave a GI50 (HT29 colon) of 3.93 µM, a TGI (HT29 colon) of over 100 µM and a GI50 (HOP-92 NSCLC) of 4.38 µM. For the same molecule, the TGI (HOP-92 NSCLC) was 12.8 µM, the GI50 (DU-145 prostate) was 2.93 µM and the TGI (DU-145 prostate) was 10.1 µM. The GI50 (NCI-H23 lung) was 4.97 µM, the TGI (NCI-H23 lung) was 17.6 µM and the GI50 (CAKI-1 renal) was 2.36 µM. It also gave a TGI (CAKI-1 renal) of 4.21 µM, a GI50 (SF-539 CNS) of 2.35 µM and a TGI (SF-539 CNS) of 4.98 µM. The GI50 (UACC-257 melanoma) was 5.88 µM, the TGI (UACC-257 melanoma) was 22.1 µM and the GI50 (MCF7 breast) was 3.64 µM. The TGI (MCF7 breast) was over 100 µM, the GI50 (U251 CNS) was 1.92 µM and the TGI (U251 CNS) was 4.4 µM. It also gave a GI50 (SW-620 colon) of 2.24 µM, a TGI (SW-620 colon) of 4.72 µM and a GI50 (UO-31 renal) of 3.22 µM. It also gave a TGI (UO-31 renal) of 10.7 µM, a GI50 (OVCAR-8 ovarian) of 2.74 µM and a TGI (OVCAR-8 ovarian) of 8.74 µM. It also gave a GI50 (SN12C renal) of 2.96 µM, a TGI (SN12C renal) of 8.5 µM and a GI50 (HCT-15 colon) of 1.36 µM. For the same molecule, the TGI (HCT-15 colon) was 2.91 µM, the GI50 (SNB-75 CNS) was 11.3 µM and the TGI (SNB-75 CNS) was 26.6 µM. For the same molecule, the GI50 (A498 renal) was 18.6 µM, the TGI (A498 renal) was 32.8 µM and the GI50 (COLO 205 colon) was 4.33 µM. It also gave a TGI (COLO 205 colon) of over 100 µM, a GI50 (HOP-62 NSCLC) of 11.1 µM and a TGI (HOP-62 NSCLC) of 29 µM. The GI50 (IGROV1 ovarian) was 4.28 µM, the TGI (IGROV1 ovarian) was 22.7 µM and the GI50 (OVCAR-4 ovarian) was 4.94 µM. The TGI (OVCAR-4 ovarian) was 20.5 µM, the GI50 (RPMI-8226 leukemia) was 2.09 µM and the TGI (RPMI-8226 leukemia) was 5.45 µM. For the same molecule, the GI50 (RXF 393 renal) was 1.65 µM, the TGI (RXF 393 renal) was 6.5 µM and the GI50 (UACC-62 melanoma) was 1.88 µM. It also gave a TGI (UACC-62 melanoma) of 5.12 µM, a GI50 (SK-MEL-2 melanoma) of 4.2 µM and a TGI (SK-MEL-2 melanoma) of 19.7 µM. The GI50 (A549 NSCLC) was 4.44 µM, the TGI (A549 NSCLC) was 23.9 µM and the GI50 (PC-3 prostate) was 4.51 µM. The TGI (PC-3 prostate) was 19.2 µM, the GI50 (NCI/ADR-RES ovarian) was 2.1 µM and the TGI (NCI/ADR-RES ovarian) was 4.47 µM. It also gave a GI50 (SK-MEL-5 melanoma) of 1.37 µM, a TGI (SK-MEL-5 melanoma) of 4.12 µM and a GI50 (BT-549 breast) of 2.45 µM. The TGI (BT-549 breast) was 6.09 µM, the GI50 (K-562 leukemia) was 2.23 µM and the TGI (K-562 leukemia) was 5.86 µM. For the same molecule, the GI50 (LOX IMVI melanoma) was 1.34 µM, the TGI (LOX IMVI melanoma) was 3.07 µM and the GI50 (SF-295 CNS) was 7.93 µM. For the same molecule, the TGI (SF-295 CNS) was 20.5 µM, the GI50 (M14 melanoma) was 1.92 µM and the TGI (M14 melanoma) was 5.17 µM. For the same molecule, the GI50 (TK-10 renal) was 3.5 µM, the TGI (TK-10 renal) was 9.57 µM and the GI50 (SF-268 CNS) was 4.76 µM. For the same molecule, the TGI (SF-268 CNS) was 24.4 µM, the GI50 (OVCAR-3 ovarian) was 2.06 µM and the TGI (OVCAR-3 ovarian) was 4.16 µM. For the same molecule, the GI50 (SK-MEL-28 melanoma) was 4.47 µM, the TGI (SK-MEL-28 melanoma) was 18.7 µM and the GI50 (HCT-116 colon) was 1.5 µM. For the same molecule, the TGI (HCT-116 colon) was 4.11 µM, the GI50 (NCI-H522 lung) was 2.83 µM and the TGI (NCI-H522 lung) was 7.64 µM. It also gave a GI50 (SK-OV-3 ovarian) of 7.57 µM, a TGI (SK-OV-3 ovarian) of 26.8 µM and a GI50 (NCI-H226 lung) of 3.35 µM. The TGI (NCI-H226 lung) was 7.89 µM, the GI50 (786-0 renal) was 4.02 µM and the TGI (786-0 renal) was 12.8 µM. It also gave a GI50 (OVCAR-5 ovarian) of 2.84 µM, a TGI (OVCAR-5 ovarian) of 7.3 µM and a GI50 (EKVX NSCLC) of 5.33 µM. For the same molecule, the TGI (EKVX NSCLC) was 17.6 µM, the GI50 (KM12 colon) was 3.6 µM and the TGI (KM12 colon) was 11.3 µM. For the same molecule, the GI50 (MDA-MB-435) was 1.95 µM, the TGI (MDA-MB-435) was 3.84 µM and the GI50 (CCRF-CEM leukemia) was 1.45 µM. It also gave a TGI (CCRF-CEM leukemia) of 3.53 µM, a GI50 (ACHN renal) of 2 µM and a TGI (ACHN renal) of 4.27 µM.
`CC(=O)O[C@H]1CC2C(C3CCC(C(C)CCC(N)=O)[C@]31C)[C@H](OC(C)=O)C[C@@H]1CC3(CC[C@]21C)OOC1(CC[C@]2(C)C4C[C@H](OC(C)=O)[C@]5(C)C(C(C)CCC(N)=O)CCC5C4[C@H](OC(C)=O)C[C@@H]2C1)OO3` (stereo partly specified) was tested, and the TGI (HS 578T breast) was 4.55 µM, the TGI (DU-145 prostate) was 3.49 µM and the TGI (MCF7 breast) was 4.08 µM. It also gave a TGI (SW-620 colon) of over 100 µM, a TGI (UO-31 renal) of 2.36 µM and a TGI (OVCAR-8 ovarian) of 3.66 µM. For the same molecule, the TGI (COLO 205 colon) was 2.84 µM, the TGI (HOP-62 NSCLC) was 3.86 µM and the TGI (IGROV1 ovarian) was 3.28 µM. The TGI (RPMI-8226 leukemia) was over 100 µM, the TGI (RXF 393 renal) was 3.34 µM and the TGI (K-562 leukemia) was over 100 µM. For the same molecule, the TGI (SF-295 CNS) was 3.2 µM, the TGI (SF-268 CNS) was 3.37 µM and the TGI (OVCAR-3 ovarian) was 2.85 µM. For the same molecule, the TGI (SK-OV-3 ovarian) was 3.95 µM, the TGI (NCI-H226 lung) was 2.79 µM and the TGI (HL-60(TB) leukemia) was 4.19 µM.
